Values quoted from earlier work in US20010014694A1, “Substituted phenyl compounds and derivatives thereof that modulate the activity of endothelin” (priority 1996, published 2001).
Where two headings read alike, the source gives them in different places.

Legend:
isolated vascular strips = settings: read-out: EC50, contractile agent; cited from earlier work
[1] = tested on: cardiovascular tissues (ETA receptors predominate); settings: cited from earlier work
[2] = tested on: non-cardiovascular tissues, such as kidney, adrenal gland, and cerebellum (ETB receptors predominate); settings: cited from earlier work
ETA receptor = settings: read-out: IC50, inhibition of 125I-labelled endothelin-1 binding, cited from earlier work
ETB receptors = settings: tissues in which ETB receptors predominate; read-out: fails to inhibit binding to receptors at concentrations up to; cited from earlier work

Row | Substance | EC50 (isolated vascular strips) [nM] | potency of inhibition of 125I-labelled endothelin-1 binding relative to endothelin-3 [1] | extent of inhibition of 125I-labelled endothelin-1 binding [2] | IC50 (ETA receptor; aortic smooth muscle) [nM] | IC50 (ETA receptor; cultured aortic smooth muscle cells) [nM] | IC50 (ETA receptor; ventricle membranes) [nM] | IC50 (ETB receptors) [nM]
1 | endothelin-1: endothelium-derived potent twenty-one amino acid peptide vasoconstrictor, one of three endothelin isopeptides | 0.4 | forty to seven hundred times more potently | to the same extent | – | – | – | –
2 | cyclo(D-Glu-L-Ala-allo-D-Ile-L-Leu-D-Trp) [BE-18257B] | – | – | – | 1400 | 500 | 800 | > 100000
